According to paper PMC8637766, “A mixed chirality α-helix in a stapled bicyclic and a linear antimicrobial peptide revealed by X-ray crystallography” (RSC Chemical Biology, 2021):
In brackets after ≈: the same amount, converted by molar mass. Peptide text beside a SMILES is read from it.

What was measured:
[1] = system: B. subtilis BR151; format: cell-based, Bacillus subtilis; settings: BR151, 20 h
Method: (§1) Bicyclic and linear peptides cytotoxicity was assayed against P. aeruginosa PAO1, P. aeruginosa ZEM-1A, P. aeruginosa ZEM9A, K. pneumoniae Oxa-48, E. coli W3110, A. baumannii BAL225, S. aureus Newman, S. aureus COL (clinical isolate of MRSA) , B. Subtilis BR151.
(§2) To determine the Minimal Inhibitory Concentration (MIC), Broth Microdilution method was used . 2 A colony of bacteria from glycerol stock was grown in LB medium overnight at 37 °C and 180 rpm shaking. The compounds were prepared as stock solutions of 8 mg/mL in sterilized milliQ deionized water, added to the first well of 96 -well sterile, polypropylene round bottom microtiter plates (TPP, untreated) and diluted serially by ½. The concentration of the bacteria was quantified by measuring absorbance at 600 nm and diluted to an OD 600 of 0.022 in MH medium. The sample solutions (150 µL) were mixed with 4 µL diluted bacterial suspension with a final inoculation of about 5×10^5 CFU.
For each test, two columns of the plate were kept for sterility control (MH medium only), growth control (MH medium with bacterial inoculum, no compound). The positive control, Polymyxin B (starting with a concentration of 64 µg/mL) in MH medium with bacterial inoculums, was introduced in the two first lines of the plate. […]
conditions. 15 μL of 3-(4,5-dimethylthiazol-2-yl)-2,5-diphenyltetrazolium bromide (MTT)3 (1 mg/mL in sterilized milliQ deionized water) were added to each well and the plates were incubated for 20-30 minutes at room temperature. The minimal inhibitory concentration (MIC) was defined as the lowest concentration of the dendrimer that inhibits the visible growth of the tested bacteria (yellow) with the unaided eye.

[2] = Lipid vesicle leakage assay, 5(6)-carboxyfluorescein release; settings: for EYPC vesicle leakage / EYPG vesicle leakage: 10 μg mL^−1 compound, leakage at 250 s, 10 mM TRIS, 107 mM NaCl, pH 7.4, 25 °C, carboxyfluorescein fluorescence, Triton X-100 = full release
Method: 4 Lipid Vesicle Leakage assays
5(6)-carboxyfluorescein (CF) was purchased from Sigma. Egg Yolk Phosphatidylcholine (EYPC),
Egg Yolk Phosphatidylglycerol (EYPG) and a Mini-Extruder were purchased from Avanti Polar
Lipids. Egg PC or Egg PG thin lipid layers were prepared by evaporating a solution of 100 mg EYPC
or EYPG in 4 mL MeOH/CHCl3 (1:1) on a rotary evaporator at room temperature and then dried in
vacuo overnight. The resulting film was then hydrated with 4 mL CF buffer (50 mM CF, 10 mM
TRIS, 107 mM NaCl, pH 7.4) for 30 min, subjected to freeze-thaw cycles (7×) and extrusion (15×)
through a polycarbonate membrane (pore size 100 nm). Extra vesicular components were removed
by gel filtration (Sephadex G-50) with 10 mM TRIS, 107 mM NaCl, pH 7.4 buffer. Final conditions:
~ 2.5 mM PC or PG; inside: 50 mM CF, 10 mM TRIS, 10 mM NaCl, pH 7.4 buffer; outside: 10 mM
TRIS, 107 mM NaCl, pH 7.4. PC or PG stock solutions (37.5 µL) were diluted to 3000 µL with a
buffer (10 mM TRIS, 107 mM NaCl, pH 7.4) in a thermostated fluorescence cuvette (25 °C) and
gently stirred (final lipid concentration ~31 µM). CF efflux was monitored at λem 517 nm (λex 492
nm) as a function of time after addition of the desired volume of peptide (1 or 20 mg/mL stock in mQ
water) at t = 45 s. The following final concentrations of peptide were monitored: 5, 10, 15, 20, 25 and
200 µg/mL. Finally, 30 µL of 1.2% Triton X -100 was added to the cuvette (0.012% final
concentration) at t = 285 s to reach the maximum intensity. Fluorescence intensities were then
Figure S1: Vesicle leakage experiments using 5(6)-carboxyfluorescein induced by peptides. EYPG and EYPC vesicles
were suspended in buffer (10 mM TRIS, 107 mM NaCl, pH 7.4) and the indicated concentration of the compound was
added after 45 sec. After 285 seconds 30 μL Triton X-100 1.2% was added for full release of fluorescein. […]

[3] = system: P. aeruginosa PAO1; format: cell-based, Pseudomonas aeruginosa
Method: as §1, §2
For each test, two columns of the plate were kept for sterility control (MH medium only), growth control (MH medium with bacterial inoculum, no compound). The positive control, Polymyxin B (starting with a concentration of 64 µg/mL) in MH medium with bacterial inoculums, was introduced in the two first lines of the plate. The plates were incubated at 37 °C for ~18 hours under static conditions. 15 μL of 3-(4,5-dimethylthiazol-2-yl)-2,5-diphenyltetrazolium bromide (MTT)3 (1 mg/mL in sterilized milliQ deionized water) were added to each well and the plates were incubated for 20-30 minutes at room temperature. The minimal inhibitory concentration (MIC) was defined as the lowest concentration of the dendrimer that inhibits the visible growth of the tested bacteria (yellow) with the unaided eye.

Structure (SMILES)	MIC BR 151 [1] [µg/mL]	MIC PAO1 [3] [µg/mL]	also measured
Cc1c2cc3cc1CSC[C@H](NC(=O)[C@H](CCCCN)NC(=O)[C@H](CCCCN)NC(=O)[C@H](CC(C)C)NC(=O)[C@H](CC(C)C)NC(=O)[C@H](CCCCN)NC3=O)C(=O)N[C@@H](CC(C)C)C(=O)N[C@@H](CCCCN)C(=O)N[C@H](C(=O)N[C@@H](CC(C)C)C(N)=O)CSC2 [bp59] (HELM PEPTIDE1{K.L.L.K.K.C.L.K.C.L.[am]}|CHEM1{[Cc1c(C[*:2])cc(C(=O)[*:1])cc1C[*:3]]}$PEPTIDE1,CHEM1,1:R1-1:R1|PEPTIDE1,CHEM1,6:R3-1:R2|PEPTIDE1,CHEM1,9:R3-1:R3$$$V2.0)	4 (≈ 3.01 µM)	–	–
Cc1c2cc3cc1CSC[C@H](NC(=O)[C@H](CC(C)C)NC(=O)[C@H](CCCCN)NC(=O)[C@H](CCCCN)NC3=O)C(=O)N[C@@H](CCCCN)C(=O)N[C@@H](CC(C)C)C(=O)N[C@H](C(=O)N[C@@H](CCCCN)C(=O)N[C@@H](CC(C)C)C(N)=O)CSC2 [bp61] (HELM PEPTIDE1{K.K.L.C.K.L.C.K.L.[am]}|CHEM1{[Cc1c(C[*:2])cc(C(=O)[*:1])cc1C[*:3]]}$PEPTIDE1,CHEM1,1:R1-1:R1|PEPTIDE1,CHEM1,4:R3-1:R2|PEPTIDE1,CHEM1,7:R3-1:R3$$$V2.0)	> 64	–	–
Cc1c2cc3cc1CSC[C@@H](NC(=O)[C@H](CCCCN)NC(=O)[C@H](CC(C)C)NC(=O)[C@H](CC(C)C)NC(=O)[C@H](CCCCN)NC(=O)[C@H](CCCCN)NC3=O)C(=O)N[C@@H](CC(C)C)C(=O)N[C@@H](CCCCN)C(=O)N[C@@H](C(=O)N[C@@H](CC(C)C)C(=O)N[C@@H](CC(C)C)C(N)=O)CSC2 [bp68] (HELM PEPTIDE1{K.K.L.L.K.[dC].L.K.[dC].L.L.[am]}|CHEM1{[Cc1c(C[*:2])cc(C(=O)[*:1])cc1C[*:3]]}$PEPTIDE1,CHEM1,1:R1-1:R1|PEPTIDE1,CHEM1,6:R3-1:R2|PEPTIDE1,CHEM1,9:R3-1:R3$$$V2.0)	–	16 (≈ 11.1 µM)	EYPC vesicle leakage [2]: 18%; EYPG vesicle leakage [2]: 44%
Cc1c2cc3cc1CSC[C@H](NC(=O)[C@H](CC(C)C)NC(=O)[C@H](CCCCN)NC(=O)[C@H](CCCCN)NC3=O)C(=O)N[C@@H](CCCCN)C(=O)N[C@@H](CC(C)C)C(=O)N[C@@H](CC(C)C)C(=O)N[C@@H](CCCCN)C(=O)N[C@H](C(N)=O)CSC2 [bp66] (HELM PEPTIDE1{K.K.L.C.K.L.L.K.C.[am]}|CHEM1{[Cc1c(C[*:2])cc(C(=O)[*:1])cc1C[*:3]]}$PEPTIDE1,CHEM1,1:R1-1:R1|PEPTIDE1,CHEM1,4:R3-1:R2|PEPTIDE1,CHEM1,9:R3-1:R3$$$V2.0)	> 64	–	–
Cc1c2cc3cc1CSC[C@H](C(=O)N[C@@H](CC(C)C)C(=O)N[C@H](CC(C)C)C(N)=O)NC(=O)[C@H](CCCCN)NC(=O)[C@@H](CC(C)C)NC(=O)[C@H](CSC2)NC(=O)[C@@H](CCCCN)NC(=O)[C@H](CC(C)C)NC(=O)[C@@H](CC(C)C)NC(=O)[C@H](CCCCN)NC(=O)[C@@H](CCCCN)NC3=O [bp67] (HELM PEPTIDE1{[dK].K.[dL].L.[dK].C.[dL].K.[dC].L.[dL].[am]}|CHEM1{[Cc1c(C[*:2])cc(C(=O)[*:1])cc1C[*:3]]}$PEPTIDE1,CHEM1,1:R1-1:R1|PEPTIDE1,CHEM1,6:R3-1:R2|PEPTIDE1,CHEM1,9:R3-1:R3$$$V2.0)	–	32 (≈ 22.2 µM)	EYPC vesicle leakage [2]: 6%; EYPG vesicle leakage [2]: 48%; Leakage activity on EYPC vesicles, in words ([2]; zwitterionic EYPC vesicles mimicking eukaryotic membranes): very low leakage activity
Cc1c2cc3cc1CSC[C@H](NC(=O)[C@H](CC(C)C)NC(=O)[C@H](CC(C)C)NC(=O)[C@H](CC(C)C)NC(=O)[C@H](CCCCN)NC(=O)[C@H](CCCCN)NC3=O)C(=O)N[C@@H](CCCCN)C(=O)N[C@@H](CC(C)C)C(=O)N[C@H](C(=O)N[C@@H](CCCCN)C(N)=O)CSC2 [bp62] (HELM PEPTIDE1{K.K.L.L.L.C.K.L.C.K.[am]}|CHEM1{[Cc1c(C[*:2])cc(C(=O)[*:1])cc1C[*:3]]}$PEPTIDE1,CHEM1,1:R1-1:R1|PEPTIDE1,CHEM1,6:R3-1:R2|PEPTIDE1,CHEM1,9:R3-1:R3$$$V2.0)	32 (≈ 24 µM)	–	–
Cc1c2cc3cc1CSC[C@H](NC(=O)[C@H](CC(C)C)NC(=O)[C@H](CCCCN)NC(=O)[C@H](CC(C)C)NC(=O)[C@H](CC(C)C)NC(=O)[C@H](CCCCN)NC3=O)C(=O)N[C@@H](CCCCN)C(=O)N[C@@H](CCCCN)C(=O)N[C@H](C(=O)N[C@@H](CC(C)C)C(N)=O)CSC2 [bp60] (HELM PEPTIDE1{K.L.L.K.L.C.K.K.C.L.[am]}|CHEM1{[Cc1c(C[*:2])cc(C(=O)[*:1])cc1C[*:3]]}$PEPTIDE1,CHEM1,1:R1-1:R1|PEPTIDE1,CHEM1,6:R3-1:R2|PEPTIDE1,CHEM1,9:R3-1:R3$$$V2.0)	> 64	–	–
Cc1c2cc3cc1CSC[C@H](NC(=O)[C@H](CCCCN)NC(=O)[C@H](CC(C)C)NC(=O)[C@H](CC(C)C)NC(=O)[C@H](CCCCN)NC(=O)[C@H](CCCCN)NC3=O)C(=O)N[C@@H](CCCCN)C(=O)N[C@@H](CC(C)C)C(=O)N[C@H](C(=O)N[C@@H](CC(C)C)C(N)=O)CSC2 [bp64] (HELM PEPTIDE1{K.K.L.L.K.C.K.L.C.L.[am]}|CHEM1{[Cc1c(C[*:2])cc(C(=O)[*:1])cc1C[*:3]]}$PEPTIDE1,CHEM1,1:R1-1:R1|PEPTIDE1,CHEM1,6:R3-1:R2|PEPTIDE1,CHEM1,9:R3-1:R3$$$V2.0)	16 (≈ 12 µM)	–	–
Cc1c2cc3cc1CSC[C@H](NC(=O)[C@H](CCCCN)NC(=O)[C@H](CC(C)C)NC(=O)[C@H](CC(C)C)NC(=O)[C@H](CCCCN)NC(=O)[C@H](CCCCN)NC3=O)C(=O)N[C@@H](CC(C)C)C(=O)N[C@@H](CCCCN)C(=O)N[C@H](C(=O)N[C@@H](CC(C)C)C(N)=O)CSC2 [bp3] (HELM PEPTIDE1{K.K.L.L.K.C.L.K.C.L.[am]}|CHEM1{[Cc1c(C[*:2])cc(C(=O)[*:1])cc1C[*:3]]}$PEPTIDE1,CHEM1,1:R1-1:R1|PEPTIDE1,CHEM1,6:R3-1:R2|PEPTIDE1,CHEM1,9:R3-1:R3$$$V2.0)	4 (≈ 3.01 µM)	>64	–
Cc1c2cc3cc1CSC[C@H](NC(=O)[C@H](CC(C)C)NC(=O)[C@H](CCCCN)NC(=O)[C@H](CCCCN)NC3=O)C(=O)N[C@@H](CCCCN)C(=O)N[C@@H](CC(C)C)C(=O)N[C@@H](CC(C)C)C(=O)N[C@@H](CCCCN)C(=O)N[C@H](C(=O)N[C@@H](CC(C)C)C(N)=O)CSC2 [bp63] (HELM PEPTIDE1{K.K.L.C.K.L.L.K.C.L.[am]}|CHEM1{[Cc1c(C[*:2])cc(C(=O)[*:1])cc1C[*:3]]}$PEPTIDE1,CHEM1,1:R1-1:R1|PEPTIDE1,CHEM1,4:R3-1:R2|PEPTIDE1,CHEM1,9:R3-1:R3$$$V2.0)	4 (≈ 3.01 µM)	–	–
